Our source for the IC50 and inhibition values is US20190031665A1, “DERIVATIVES OF PYRROLOIMIDAZOLE OR ANALOGUES THEREOF WHICH ARE USEFUL FOR THE TREATMENT OF INTER ALIA CANCER” (EMCURE PHARMACEUTICALS LIMITED, priority 2016, published 2019).

Structures are written as SMILES.

For test [1], the target named is T1, human indoleamine 2,3-dioxygenase 1 (hIDO1) (Homo sapiens, UniProt P14902).
T1 construct: His tag (N); purchased BPS Bioscience, San Diego, Calif., USA; host or cells: E. coli
Kind of test: In-vitro human indoleamine 2,3-dioxygenase 1 (IDO1) enzyme assay. It counts as biochemical. The note with it: for IC50: hIDO1 enzyme; for inhibition at 1 µM: hIDO1 enzyme at 1.0 μM concentration; for inhibition at 10 µM: hIDO1 enzyme at 10.0 μM concentration. As to the method:
In-vitro human indoleamine 2,3-dioxygenase 1 (IDO1) enzyme assay: In the in-vitro human indoleamine 2,3-dioxygenase 1 (hIDO1) enzyme assay for screening inhibitor compounds, hIDO1 with an N-terminal histidine tag expressed and purified from E. coli (BPS Bioscience, San Diego, Calif., USA) was used. All other materials were procured from Sigma-Aldrich, St. Louis, Mo., USA.
The assay method for monitoring the conversion of L-tryptophan to N-formylkynurenine by hlDO1 was carried out as follows. hlDO1 (50 ng) was incubated with tryptophan (80 μM) in the presence of ascorbic acid (10 mM), methylene blue (10 μM), catalase (100 μg/ml) and 0.01% Tween-20 in sodium phosphate buffer (50 mM; pH 6.5) at 37° C. for 60 min. The reaction was terminated with 200 mM piperidine (PIP) and further incubated at about 65° C. for about 20 minutes to convert N-formylkynurenine (NFK) to NFK-PIP. The reaction mixture was then incubated at room temperature for about 1 hour. The fluorescence intensity was read in a fluorescence microplate reader at an excitation wavelength of 400 nm and emission wavelength of 500 nm. Percent inhibition at each concentration of test compounds was determined by estimating the decrease in NFK-PIP. Data were analyzed using nonlinear regression to generate IC50 values using Graph Pad Prism® 6.

Test [2] deals with T2, human tryptophan 2,3-dioxygenase (hTDO) (Homo sapiens, UniProt P48775).
T2 construct: His tag (N); purchased BPS Bioscience, San Diego, Calif., USA; host or cells: E. coli
Description: In-vitro human tryptophan 2,3-dioxygenase (TDO) enzyme assay. To be noted: for inhibition at 1 µM: hTDO enzyme at 1.0 μM concentration; for inhibition at 10 µM: hTDO enzyme at 10.0 μM concentration. It counts as biochemical. As for the experimental part: In the in-vitro human tryptophan 2,3-dioxygenase (hTDO) enzyme assay for screening inhibitor compounds, hTDO with an N-terminal histidine tag expressed and purified from E. coli (BPS Bioscience, San Diego, Calif., USA) was used. All other materials were procured from Sigma-Aldrich, St. Louis, Mo., USA.
The assay monitoring method for the conversion of L-tryptophan to N-formylkynurenine by hTDO was carried out as follows. hTDO (125 ng) was incubated in the presence of 200 μM L-tryptophan, 100 mM sodium phosphate buffer (pH 7.0), 0.01% Tween-20 and 100 μM ascorbic acid at about 37° C. for about 60 minutes. The reaction was terminated with 200 mM piperidine (PIP) and further incubated at about 65° C. for about 20 minutes to convert N-formylkynurenine (NFK) to NFK-PIP. The reaction mixture was then incubated at room temperature for about 75 minutes. The fluorescence intensity was read in a fluorescence microplate reader at an excitation wavelength of 400 nm and emission wavelength of 500 nm. Percent inhibition at each concentration of test compounds was determined by estimating the decrease in NFK-PIP. Data were analyzed using nonlinear regression to generate IC50 values using Graph Pad Prism® 6.

T2 sequence (P48775 whole entry): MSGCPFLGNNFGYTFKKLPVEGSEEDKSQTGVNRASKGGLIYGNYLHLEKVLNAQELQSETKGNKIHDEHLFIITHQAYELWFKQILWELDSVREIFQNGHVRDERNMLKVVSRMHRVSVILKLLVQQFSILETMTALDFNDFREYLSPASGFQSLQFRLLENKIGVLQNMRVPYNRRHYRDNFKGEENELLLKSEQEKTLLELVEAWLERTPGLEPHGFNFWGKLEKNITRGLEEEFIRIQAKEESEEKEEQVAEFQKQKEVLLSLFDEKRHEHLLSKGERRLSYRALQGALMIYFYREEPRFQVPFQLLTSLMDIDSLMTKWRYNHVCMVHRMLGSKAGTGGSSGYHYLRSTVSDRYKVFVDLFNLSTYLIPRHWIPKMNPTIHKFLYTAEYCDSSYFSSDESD
T1 sequence (P14902 whole entry): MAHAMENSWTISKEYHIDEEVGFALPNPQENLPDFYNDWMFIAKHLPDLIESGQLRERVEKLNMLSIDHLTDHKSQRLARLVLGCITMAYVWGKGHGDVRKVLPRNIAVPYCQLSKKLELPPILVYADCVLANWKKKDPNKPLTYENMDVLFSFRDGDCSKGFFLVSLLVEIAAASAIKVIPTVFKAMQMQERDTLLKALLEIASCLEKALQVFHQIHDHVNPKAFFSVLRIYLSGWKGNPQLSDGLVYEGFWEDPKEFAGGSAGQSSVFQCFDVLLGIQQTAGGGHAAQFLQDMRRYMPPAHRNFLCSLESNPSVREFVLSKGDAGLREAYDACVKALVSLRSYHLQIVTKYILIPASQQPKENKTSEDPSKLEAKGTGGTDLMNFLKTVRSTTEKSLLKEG

On to `CC1=C(c2ccccc2)C(CC(=O)c2ccccc2)n2cncc21` (single isomer, unassigned) [Example 30], for which, in test [1], the IC50 – broadly, the concentration needed to halve the response being measured – is above 500 nM; the inhibition (in general, how much of the control response was suppressed) at 1 µM was at least 50%; the inhibition at 10 µM is at least 50%. In test [2], the inhibition at 1 µM is at least 50% and the inhibition at 10 µM was at least 50%.
Regarding `CC1=C(c2ccccc2F)C(CC(=O)C2CCC(O)CC2)n2cncc21` (single isomer, unassigned) [Example 97], the figures for the inhibition at 1 µM in test [1] and in test [2] were at most 50% and at least 50%, respectively.
With `CC1=C(c2ccccc2F)C(CC(=O)C2CCC(O)CC2)n2cncc21` (single isomer, unassigned) [Example 98], the inhibition at 10 µM in test [1] is at least 50%.
As for `CC1=C(c2ccccc2)C(CC(O)C2CCC(O)CC2)n2cncc21` (single isomer, unassigned) [Example 121], in test [1], the inhibition at 1 µM is at most 50% and the inhibition at 10 µM was at least 50%. Further, the inhibition at 1 µM in test [2] is at most 50%.
As for `CC1=C(c2ccccc2)C(CC(O)C2CCC(O)CC2)n2cncc21` (single isomer, unassigned) [Example 122], the IC50 in test [1] is below 500 nM.
As to `CC1=C(c2ccccc2)C(CC(O)C2CCN(C(=O)c3ccccn3)CC2)n2cncc21` (single isomer, unassigned) [Example 160], in test [1], the inhibition at 1 µM is at most 50% and the inhibition at 10 µM was at most 50%. The compound also registered an inhibition at 1 µM in test [2] of at most 50%.
Consider `CC1=C(c2ccccc2)C(CC(O)C2CCN(C(=O)c3ccccn3)CC2)n2cncc21` (single isomer, unassigned) [Example 161], for which the 50% inhibitory concentration (IC50) in test [1] was above 500 nM.
With `CC1=C(c2ccccc2)C(CC(=O)c2ccc(-c3ccccc3)cc2)n2cncc21` (single isomer, unassigned; isomer-i) [Example 42, 1-([1,1′-biphenyl]-4-yl)-2-(7-methyl-6-phenyl-5H-pyrrolo[1,2-c]imidazol-5-yl)ethan-1-one, Isomer-I], in test [1], the IC50 was below 500 nM, the inhibition at 1 µM was at least 50% and the inhibition at 10 µM was at least 50%. This compound also showed an inhibition at 1 µM in test [2] of at least 50%.
In test [1], `COC(=O)c1ccc(C(=O)CC2C(c3ccccc3)=C(C)c3cncn32)cc1` (single isomer, unassigned; isomer-i) [Example 71, 4-[2-(7-Methyl-6-phenyl-5H-pyrrolo[1,2-c]imidazol-5-yl)-acetyl]-benzoic acid methyl ester, Isomer-I] showed an IC50 below 500 nM, an inhibition at 1 µM of at least 50% and an inhibition at 10 µM of at least 50%. In addition, in test [2], the inhibition at 1 µM was at least 50% and the inhibition at 10 µM was at least 50%.
`CC1=C(c2ccccc2)C(C[C@H](O)C2CCC(C(=O)OC(C)(C)C)CC2)n2cncc21` (stereo in doubt) [Example 185]: in test [1], the IC50 was below 500 nM, the inhibition at 1 µM is at least 50% and the inhibition at 10 µM was at least 50%. Besides, the inhibition at 1 µM in test [2] was at least 50%.
Regarding `CCOC(=O)C1CCC([C@@H](O)CC2C(c3ccccc3)=C(C)c3cncn32)CC1` (stereo in doubt) [Example 189], in test [1], the IC50 is below 500 nM, the inhibition at 1 µM is at least 50% and the inhibition at 10 µM was at least 50%. In addition, the inhibition at 1 µM in test [2] was at least 50%.
Compound `CCCCCCCCC(O)CC1C(c2ccccc2)=C(C)c2cncn21` (centres unmarked) [Compound 171, 1-(7-Methyl-6-phenyl-5H-pyrrolo[1,2-c]imidazol-5-yl)-decan-2-ol] returned an inhibition at 1 µM in test [1] of at least 50%. Besides, the inhibition at 10 µM in test [1] and in test [2] was at least 50% throughout.
Consider `CC1=C(c2ccccc2)C(CC(=O)N2CCC(O)CC2)n2cncc21` (centres unmarked) [Compound 175, 1-(4-Hydroxypiperidin-1-yl)-2-(7-methyl-6-phenyl-5H-pyrrolo[1,2-c]imidazol-5-yl)ethan-1-one], for which the inhibition at 1 µM in test [1] and in test [2] was at most 50% throughout. For the same compound, the inhibition at 10 µM in test [1] is at most 50%.
Consider `O=C(CC1C2=C(CCCC2)c2cncn21)c1ccccc1` (centres unmarked) [Example 1, 1-Phenyl-2-(6,7,8,9-tetrahydro-5H-imidazo[5,1-a]isoindol-5-yl)-ethanone], for which the inhibition at 10 µM in test [1] is at most 50%; in test [2], at least 50%.
Consider `OC(CC1C2=C(CCCC2)c2cncn21)c1ccccc1` (centres unmarked) [Example 2, 1-Phenyl-2-(6,7,8,9-tetrahydro-5H-imidazo[5,1-a]isoindol-5-yl)-ethanol], for which the inhibition at 10 µM in test [1] is at most 50%; in test [2], at least 50%.
With `O=C(CC1C2=C(CCCC2)c2cncn21)c1cccc(Cl)c1` (centres unmarked) [Example 3], the values for the inhibition at 10 µM in test [1] and in test [2] were at most 50% and at least 50%, respectively.
For the compound `OC(CC1C2=C(CCCC2)c2cncn21)c1cccc(Cl)c1` (centres unmarked) [Example 4], the figures for the inhibition at 10 µM in test [1] and in test [2] were at most 50% and at least 50%, respectively.
As for `Cc1ccc(S(=O)(=O)N2CCC3=C(C2)C(CC(=O)c2ccccc2)n2cncc23)cc1` (centres unmarked) [Example 5], the inhibition at 10 µM in test [1] is at most 50%.
In test [1], `Cc1ccc(S(=O)(=O)N2CCC3=C(C2)C(CC(O)c2ccccc2)n2cncc23)cc1` (centres unmarked) [Example 6] came in with an inhibition at 10 µM of at most 50%.
On to `O=C(CC1C2=C(CCCC2)c2cncn21)c1cccc(OCc2ccccc2)c1` (centres unmarked) [Example 7], for which the inhibition at 10 µM was at most 50% in test [1] and at least 50% in test [2].
In the case of `OC(CC1C2=C(CCCC2)c2cncn21)c1cccc(OCc2ccccc2)c1` (centres unmarked) [Example 8], the inhibition at 10 µM was at most 50% in test [1] and at least 50% in test [2].
Consider `O=C(CC1C2=C(CCCC2)c2cncn21)c1cc(F)ccc1F` (centres unmarked) [Example 9], for which the figures for the inhibition at 10 µM in test [1] and in test [2] were at most 50% and at least 50%, respectively.
For `OC(CC1C2=C(CCCC2)c2cncn21)c1cc(F)ccc1F` (centres unmarked) [Example 10], in that order: at most 50% and at least 50%.
`CC1=C(c2ccccc2)C(CC(=O)c2ccccc2)n2cncc21` (centres unmarked) [Example 11, 2-(7-Methyl-6-phenyl-5H-pyrrolo[1,2-c]imidazol-5-yl)-1-phenyl-ethanone] yielded an IC50 in test [1] above 500 nM. Further, the inhibition at 10 µM in test [1] and in test [2] was at least 50% throughout.
Turning to `CC1=C(c2ccccc2)C(CC(O)c2ccccc2)n2cncc21` (centres unmarked) [Example 12, 2-(7-Methyl-6-phenyl-5H-pyrrolo[1,2-c]imidazol-5-yl)-1-phenyl-ethanol], in test [1], the IC50 was above 500 nM and the inhibition at 10 µM is at least 50%. The inhibition at 10 µM in test [2] is at least 50%.
For the compound `O=C(CC1C=C(c2ccccc2)c2cncn21)c1ccccc1` (centres unmarked) [Example 13], the inhibition at 10 µM in test [1] was at most 50%.
In test [1], `OC(CC1C=C(c2ccccc2)c2cncn21)c1ccccc1` (centres unmarked) [Example 14] showed an inhibition at 10 µM of at most 50%.
`CC1=C(c2cccc(F)c2)C(CC(=O)c2ccccc2)n2cncc21` (centres unmarked) [Example 15, 2-[6-(3-Fluoro-phenyl)-7-methyl-5H-pyrrolo[1,2-c]imidazol-5-yl]-1-phenyl-ethanone]: in test [1], the inhibition at 1 µM is at most 50% and the inhibition at 10 µM is at least 50%. The same compound showed an inhibition at 10 µM in test [2] of at least 50%.
As for `CC1=C(c2cccc(F)c2)C(CC(O)c2ccccc2)n2cncc21` (centres unmarked) [Example 16, 2-[6-(3-Fluoro-phenyl)-7-methyl-5H-pyrrolo[1,2-c]imidazol-5-yl]-1-phenyl-ethanol], in test [1], the inhibition at 1 µM is at most 50% and the inhibition at 10 µM is at least 50%. In addition, in test [2], the inhibition at 10 µM is at least 50%.
`CC1=C(c2ccccc2)c2cncn2C1CC(=O)c1ccccc1` (centres unmarked) [Example 21]: in test [1], the inhibition at 1 µM is at most 50% and the inhibition at 10 µM was at most 50%.
For the compound `CC1=C(c2ccccc2)C(CC(O)C2CCC(O)CC2)n2cncc21` (centres unmarked) [Example 111], in test [1], the IC50 was above 500 nM and the inhibition at 10 µM was at least 50%.
In test [1], `CCCNC(=O)CC1C(c2ccccc2)=C(C)c2cncn21` (centres unmarked) [Example 172, 2-(7-Methyl-6-phenyl-5H-pyrrolo[1,2-c]imidazol-5-yl)-N-propylacetamide] had an inhibition at 1 µM of at most 50% and an inhibition at 10 µM of at most 50%.
